Reference: the supplement of paper PMC10307832

Experiments:
Experiment in all cases: relative viability (nuclei count vs DMSO), 5 days (fraction); higher = more cells survive
[1] = compound: C1=CC=C(C(=C1)C2=CC=C(C=C2)C3=CSC4=C3C(=C(C(=O)N4)C#N)O)O + CC(=O)Nc1cccc(-n2c(=O)n(C3CC3)c(=O)c3c(Nc4ccc(I)cc4F)n(C)c(=O)c(C)c32)c1 [Trametinib] (partner 0.02 µM)
In short: (§1)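 Relative viability divides the nuclei count in treated wells by that in vehicle wells. Lung cancer cell lines were seeded in 1536-well plates, dosed by pin tool the next day, and fixed and stained after 5 days in one step with final 0.05% Triton X-100, 1% formaldehyde and 1 ug/ml Hoechst. Dosing was a single drug or a fixed anchor-drug dose plus five library-drug doses (not always all listed) in √10 steps, and values are medians of duplicate plates imaged at 4×.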

TGX 221 + Trametinib = compound: CC1=CN2C(=O)C=C(N=C2C(=C1)C(C)NC3=CC=CC=C3)N4CCOCC4 [TGX 221] + CC(=O)Nc1cccc(-n2c(=O)n(C3CC3)c(=O)c3c(Nc4ccc(I)cc4F)n(C)c(=O)c(C)c32)c1 [Trametinib] (partner 0.02 µM)
In short: as §1

Ricolinostat + AZD7762 = compound: O=C(CCCCCCNC(=O)c1cnc(N(c2ccccc2)c2ccccc2)nc1)NO [Ricolinostat] + NC(=O)Nc1cc(-c2cccc(F)c2)sc1C(=O)N[C@H]1CCCNC1 [AZD7762] (partner 0.2 µM)
In short: as §1

Ricolinostat + Olaparib = compound: O=C(CCCCCCNC(=O)c1cnc(N(c2ccccc2)c2ccccc2)nc1)NO [Ricolinostat] + O=C(c1cc(Cc2n[nH]c(=O)c3ccccc23)ccc1F)N1CCN(C(=O)C2CC2)CC1 [Olaparib] (partner 8 µM)
In short: as §1

| Cell Line | relative viability ([1]; first compound 0.08 µM) | relative viability ([1]; first compound 0.253 µM) | relative viability ([1]; first compound 0.8 µM) | relative viability ([1]; first compound 2.53 µM) | relative viability ([1]; first compound 8 µM) | relative viability (TGX 221 + Trametinib; first compound 0.08 µM) | relative viability (TGX 221 + Trametinib; first compound 0.253 µM) | relative viability (TGX 221 + Trametinib; first compound 0.8 µM) | relative viability (TGX 221 + Trametinib; first compound 2.53 µM) | relative viability (TGX 221 + Trametinib; first compound 8 µM) | relative viability (Ricolinostat + AZD7762; first compound 0.253 µM) | relative viability (Ricolinostat + AZD7762; first compound 0.8 µM) | relative viability (Ricolinostat + AZD7762; first compound 2.53 µM) | relative viability (Ricolinostat + Olaparib; first compound 0.08 µM) | relative viability (Ricolinostat + Olaparib; first compound 0.253 µM) | relative viability (Ricolinostat + Olaparib; first compound 0.8 µM) | relative viability (Ricolinostat + Olaparib; first compound 2.53 µM) | relative viability (Ricolinostat + AZD7762; first compound 0.08 µM) |
| --- | --- | --- | --- | --- | --- | --- | --- | --- | --- | --- | --- | --- | --- | --- | --- | --- | --- | --- |
| LCLC-97TM1 | 0.23 | 0.239 | 0.247 | 0.168 | 0.232 | 0.178 | 0.172 | 0.22 | 0.187 | 0.185 | 0.378 | 0.265 | 0.34 | 0.355 | 0.446 | 0.486 | 0.341 | – |
| NCI-H1734 | 0.57 | 0.666 | 0.728 | 0.669 | 0.559 | 0.678 | 0.602 | 0.71 | 0.66 | 0.688 | 0.68 | 0.372 | 0.235 | 0.61 | 0.642 | 0.601 | 0.324 | 0.45 |
| NCI-H661 | 0.5 | 0.573 | 0.603 | 0.569 | 0.501 | 0.584 | 0.544 | 0.569 | 0.591 | 0.495 | – | – | – | 0.654 | 0.75 | 0.706 | 0.558 | – |
| SK-LU-1 | 0.412 | 0.408 | 0.505 | 0.476 | 0.426 | 0.483 | 0.672 | 0.542 | 0.356 | 0.41 | – | – | – | 0.371 | 0.478 | 0.362 | 0.382 | – |
| LC-2-ad | 0.899 | 0.942 | 0.909 | 0.98 | 0.807 | 0.846 | 0.906 | 0.927 | 0.885 | 0.858 | 0.883 | 0.82 | 0.745 | 0.699 | 0.639 | 0.665 | 0.285 | 0.842 |
| NCI-H1355 | 0.484 | 0.495 | 0.416 | 0.432 | 0.454 | 0.448 | 0.396 | 0.406 | 0.359 | 0.302 | 0.853 | 0.674 | 0.575 | 0.647 | 0.723 | 0.707 | 0.688 | 0.689 |
| NCI-H1793 | 0.354 | 0.738 | 0.428 | 0.446 | 0.34 | 0.462 | 0.374 | 0.398 | 0.357 | 0.306 | 0.414 | 0.314 | 0.206 | 0.692 | 0.825 | 0.903 | 0.902 | 0.387 |
| H3255 | 0.57 | 0.676 | – | 0.782 | 0.526 | 0.583 | 0.537 | 0.538 | 0.576 | 0.529 | 0.759 | 0.75 | 0.849 | 0.543 | 0.529 | 0.525 | 0.506 | 0.717 |
| NCI-H2342 | 0.754 | 0.88 | 0.794 | 0.681 | 0.68 | 0.814 | 0.763 | 0.8 | 0.632 | 0.93 | 0.443 | 0.531 | 0.451 | 0.444 | 0.535 | 0.421 | 0.46 | 0.413 |
| NCI-H838 | 0.488 | 0.485 | 0.654 | 0.456 | 0.331 | 0.49 | 0.456 | 0.45 | 0.402 | 0.355 | 0.941 | 0.963 | 0.958 | 0.802 | 0.788 | 0.787 | 0.404 | 0.827 |
| NCI-H727 | 0.39 | 0.373 | 0.384 | 0.423 | 0.331 | 0.476 | 0.362 | 0.409 | 0.392 | 0.366 | 0.711 | 0.664 | 0.576 | 0.827 | 0.624 | 0.75 | 0.611 | 0.475 |
| UMC-11 | – | 0.649 | 0.695 | 0.658 | 0.551 | 0.671 | 0.648 | 0.822 | 0.777 | 0.823 | – | – | – | 0.345 | 0.339 | 0.323 | 0.198 | – |
| CAL-12T | 0.378 | 0.381 | 0.312 | 0.333 | 0.27 | 0.272 | 0.299 | 0.316 | 0.33 | 0.325 | 0.602 | 0.56 | 0.489 | 0.739 | 0.732 | 0.701 | 0.77 | 0.496 |
| NCI-H1755 | 0.758 | 0.775 | 0.8 | 0.862 | 0.797 | 0.792 | 0.743 | 0.646 | 0.647 | 0.628 | 0.444 | 0.439 | 0.422 | 0.826 | 0.809 | 0.814 | 0.739 | 0.38 |
| NCI-H1651 | 0.895 | 0.875 | 0.809 | 0.858 | 0.677 | 0.809 | 0.84 | 0.756 | 0.764 | 0.73 | 0.485 | 0.367 | 0.302 | 0.194 | 0.174 | 0.184 | 0.164 | 0.429 |
